Laboratory results from article PMC5755735, “Discovery of indolylpiperazinylpyrimidines with dual-target profiles at adenosine A2A and dopamine D2 receptors for Parkinson's disease treatment” (PLoS ONE, 2018).
“And” between values parts separate entries of the source, which are not always exact repeats. Equal entries are not always repeated.

Experiments:
[1] = molecular target: human dopamine D2 receptor (Homo sapiens, UniProt P14416); assay: D2R-proteopolymersomes-based fluorescence competition assay with BODIPY-NAPS; assay type: binding; set-up: made in house; host or cells: in vitro (cell-free) synthesis, inserted into polymersomes; details: + D2-ACM (D2R-proteopolymersomes); read-out: EC50 (D2 receptor, displacement of BODIPY-NAPS)
Method: For the replacement assay, ABA-polymersomes were covalently attached to an amino-functionalized glass slide, which was then treated with isopropanol, ultrapure water and a N2-stream. […] Program ImageJ was used for determination of fluorescence intensities.

[2] = test system: LRRK2 G2019S flies; assay: fly viability / survival of mutant LRRK2 G2019S flies; assay type: in vivo; details: for effect on fly viability / mortality: concentrations in the 50–100 μM range; for effect on fly viability: ligand concentration 500 μM
Method: Studies have shown that expression of the LRRK2-G2019S mutantion in Drosophila caused more severe PD phenotypes, including locomotor dysfunction, loss of dopaminergic neurons, and early mortality, relative to that of wild-type LRRK2 [31]. Prior to evaluating compounds 5 and 6 in the Drosophila model of PD, the effect of compound concentrations on fly viability was studied. At the ligand concentration of 500 μM, both compounds were lethal to G2019S flies (data not shown). […] As there was no remarkable difference in the survival rate between 50 and 100 μM for compound 5, this range was selected for compound 5 for the subsequent climbing assay and quantification of DA neurons.
Fly lines for 24B-Gal4 (muscle specific), ddc-Gal4 (dopaminergic neuron-specific), elav-Gal4 (pan-neuronal), UAS-mito-GFP, and UAS-dAMPK-KA were purchased from Bloomington Drosophila Stock Center. The parkin-null mutant flies were kind gifts from Chung J. and Cho K. S. (Korea Advanced Institute of Science and Technology, Daejeon, Korea). To generate transgenic mutant LRRK2 G2019S, cDNA containing a myc-tag at the C terminus was inserted into pUAST plasmid and microinjected into Drosophila embryos (BestGene). Sequencing of cloned products was performed before they were microinjected into the embryos. Climbing assays were performed according to a previously described method. Briefly, 20 female adult flies from each group were randomly selected after being anaesthetised and placed in a vertical plastic column (length 25 cm; diameter 1.5 cm). Age-matched normal flies were used as controls. After a 2-hour recovery period from CO2 exposure, flies were gently tapped to the bottom of the column, and the number of flies that reached the top of column at 1 min was counted. Results are presented as mean ± SEM of the scores obtained from three independent experiments. To study the effect of compounds, flies were fed with cornmeal-agar medium supplemented with the DMSO solution of the compound immediately at post-eclosion (for parkin-null flies) or at day 35 onwards (for LRRK2 mutant flies) for a period of 25 days. Immunohistochemical analysis of whole-mount adult fly brains were prepared according to published protocols and stained with rabbit anti-TH (1:300, Pel-Freez Biologicals) as primary antibody. The stained samples were viewed using an Olympus Fluoview Upright Confocal Microscope. DA neurons were quantified according to previously published method. The size of mito-GFP puncta was measured using the ImageJ program and expressed as mean ± SD (n ≥ 10 DA neurons per experimental group). Statistical significance for all the quantitative data obtained were analyzed using one-way ANOVA with Tukey’s test HSD post hoc test (*p < 0.05, **p < 0.01).

[3] = test system: HL-1 cardiomyocyte; assay: cell viability assay in HL-1 cardiomyocytes (Cell-Titer-Glo); assay type: cell-based; details: concentrations less than 30 μM, 24 h
Method: (§1) Besides the mutagenicity study, compounds 5 and 6 were also subjected to cell viability assays using transforming growth factor-alpha mouse hepatocyte (TAMH) and HL-1 cardiomyocyte to assess the cytotoxic potential. TAMH lines were treated with compounds 5 and 6 in eight different concentrations (100 μM, 33.3 μM, 11.1 μM, 3.7 μM, 1.23 μM, 0.41 μM, 0.13 μM, 0.045 μM), and the percentage of viable cells was plotted against the logarithm of ligand concentration (S10B and S10C Fig). […] Acetaminophen, a drug with direct hepatotoxic potential, was used as the positive control in this assay (S10A Fig). […] Doxorubicin, a chemotherapeutic agent known to cause dose-dependent cardiotoxicity, was used as the positive control in this assay (S10D Fig).
(§2) Immortalised hepatocyte and cardiomyocyte cell lines, TAMH (TGF-α overexpressing mouse hepatocytes) and HL-1 were used respectively as models for in vitro toxicity studies. Both cell lines were cultured in accordance with previously described methods. […] The cell-reagent mixture was transferred to a solid white flat-bottom 96-well plate (Greiner 655207) for luminescence reading. Luminescence was recorded with an integration time of 0.25 second with a Tecam Infinite® M200 Microplate reader. Data are expressed as percentage of viable cells compared to DMSO-treated controls. […]

[4] = test system: TAMH (TGF-α overexpressing mouse hepatocytes); assay: cell viability assay in TAMH hepatocytes (Cell-Titer-Glo); assay type: cell-based; details: concentrations less than 30 μM, 24 h
Method: as §1, §2

Chain of human dopamine D2 receptor (P14416 whole entry): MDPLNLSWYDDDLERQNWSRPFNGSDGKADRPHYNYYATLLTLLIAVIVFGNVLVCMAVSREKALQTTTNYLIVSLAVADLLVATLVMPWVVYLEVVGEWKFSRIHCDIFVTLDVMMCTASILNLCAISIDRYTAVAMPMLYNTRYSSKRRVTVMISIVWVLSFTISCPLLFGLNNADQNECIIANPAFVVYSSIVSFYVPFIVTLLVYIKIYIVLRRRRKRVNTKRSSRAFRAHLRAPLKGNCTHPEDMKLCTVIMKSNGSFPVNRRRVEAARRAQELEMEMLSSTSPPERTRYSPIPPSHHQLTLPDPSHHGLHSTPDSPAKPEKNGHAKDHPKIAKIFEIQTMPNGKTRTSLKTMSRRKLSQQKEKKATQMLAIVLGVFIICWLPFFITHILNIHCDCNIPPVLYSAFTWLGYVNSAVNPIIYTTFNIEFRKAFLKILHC

SMILES | EC50 [1] | effect on fly viability / mortality [2] | effect on fly viability [2] | cytotoxicity (cell viability) [3] | cytotoxicity (cell viability) [4]
Cc1cc(C)nc(N2CCN(C(=O)Cc3c(C)[nH]c4ccccc34)CC2)n1 [Compound 6, 1‐[4‐(4,6‐Dimethylpyrimidin‐2‐yl)piperazin‐1‐yl]‐2‐(2‐methyl‐1H‐indol‐3‐yl)ethan‐1‐one] | 22.5 to 40.2 µM and 40.2 µM | toxicity | lethal | no toxicity observed | non-cytotoxic
Cc1cc(C)nc(N2CCN(C(=O)c3c[nH]c4ccccc34)CC2)n1 [Compound 5, 3‐[4‐(4,6‐Dimethylpyrimidin‐2‐yl)piperazine‐1‐carbonyl]‐1H‐indole] | 22.5 to 40.2 µM and 22.5 µM | able to delay the G2019S fly mortality | lethal | no toxicity observed | non-cytotoxic
